Measured values from patent US7582679B2, “Compositions containing solid ibuprofen concentrates and methods of making solid ibuprofen concentrates” (Pharmaceutics International Incorporated, priority 2006, dated 2009).

Tests used:
[1] = Comparative dissolution of hard gelatin capsules, USP apparatus type II, purified water; type: physicochemical; conditions: size 1 hard gelatin capsule, 200 mg ibuprofen, paddle 50 rpm, 900 mL purified water
Method: Ibuprofen powder (supplied by BASF) was similarly filled manually into size 1 hard gelatin capsules to yield 200 mg ibuprofen per capsule.
Capsules were tested using a USP dissolution apparatus type II with a paddle speed of 50 rpm and 900 mL of purified water as a dissolution medium.

[2] = Angle of repose (flowability of powder); type: physicochemical
Method: The dried granules were lubricated with 0.25% w/w magnesium stearate and compressed using a Piccola 10 station rotary tablet press. The lubricated granules had angle of repose 26.56° compared with ibuprofen powder (supplied by BASF) having an angle of repose 48.01°. The resultant compressed tablets had hardness 6.1 kp and thickness 4.80 mm.

% dissolution ([1]; 10 min): 2.2%
% dissolution ([1]; 20 min): 5.9%
% dissolution ([1]; 30 min): 9.2%
angle of repose [2]: 48.01 °
Compound: CC(C)Cc1ccc(C(C)C(=O)O)cc1 (stereo not shown) [ibuprofen powder, ibuprofen]
